Measurements from patent publication US8722731B2, “Furanyl compounds and the use thereof” (NovoMedix, LLC, priority 2010, dated 2014).
Like-named read-outs stand apart in the source and are kept apart here.

Columns and labels:
Kg1a = assay: IC50 cell-based assay, suspension cells, Kg1a; conditions: Homo sapiens, KG-1a, Leukemia, AML, read-out: IC50 of Compounds in Suspension Cell Types
Protocol: (§1) In one embodiment, the IC50s of the compounds provided herein were determined in cell-based assays using adherent cells. In one embodiment, the activity of the compounds provided herein were determined in a cell-based assay using the triple negative breast cancer cell line MDA-MB-468. In one embodiment, the adherent cells used in the cell-based assays may be a cell type selected from Table 1. In one embodiment, the cell-based assay may be carried out as provided herein. On day 0, cells were seeded at 20,000 cells per well in 100 µL of media into individual wells of a 96-well tissue culture plate. The next day, compounds were diluted to twice the desired final concentration and added in 100 µL of media for a final volume of 200 μL. Standard solutions for each compound were prepared at 1000× concentration in DMSO. The highest concentration was 30 mM. Serial 1:1 dilutions were made from there for a 6- or 9-point curve (e.g., 30 mM, 15 mM, 7.5 mM, etc). Compounds were then diluted 1:500 in media, and 100 µL of the resulting solution was added to each well for a final dilution of 1:1000. Each concentration of compound was tested in triplicate. Cells were incubated at 37° C. with 5% CO2. After 72 hours, 20 μL of CellTiter 96 Aqueous One Solution Cell Proliferation Assay (Promega) was added to each well. Cells were placed back in the incubator, and the absorbance at 490 nm was read after 2-3 hours. The concentration of compound that decreased the number of metabolically active cells by 50% was determined and reported as the IC50. “Percent Viability” was determined by subtracting the average background value (media only) and expressed as a ratio to the average value obtained from cells treated with only DMSO.
(§2) In one embodiment, the IC50s of the compounds provided herein were determined in cell-based assays using suspension cells. In one embodiment, the activity of the compounds provided herein were determined in a cell-based assay using the JeKo-1 cell line (mantle cell lymphoma) or the Pfeiffer cell line (diffuse large B-cell lymphoma). In one embodiment, the suspension cells used in the cell-based assays may be a cell type selected from Table 2. Assays with suspension cells were similar except that 40,000-60,000 cells were added to each well and compounds were added immediately after cell plating.

HL-60 = assay: IC50 cell-based assay, suspension cells, HL-60; conditions: Homo sapiens, Leukemia, AML, read-out: IC50 of Compounds in Suspension Cell Types
Protocol: as §1, §2

Hep-G2 = assay: IC50 cell-based assay, adherent cells, Hep-G2; conditions: Homo sapiens, HepG2, Liver, hepatocellular carcinoma, 72 hours, read-out: IC50 of Compounds in Adherent Cell Types
Protocol: as §1

MDA-MB-231 = assay: IC50 cell-based assay, adherent cells, MDA-MB-231; conditions: Homo sapiens, Breast, triple neg, 72 hours, read-out: IC50 of Compounds in Adherent Cell Types
Protocol: as §1

MCF-7 = assay: IC50 cell-based assay, adherent cells, MCF-7; conditions: Homo sapiens, MCF7, Breast, ER+, 72 hours, read-out: IC50 of Compounds in Adherent Cell Types
Protocol: as §1

AsPC-1 = assay: IC50 cell-based assay, adherent cells, AsPC-1; conditions: Homo sapiens, ASPC1, Pancreas, carcinoma, 72 hours, read-out: IC50 of Compounds in Adherent Cell Types
Protocol: as §1

Nalm-6-VR = assay: IC50 cell-based assay, suspension cells, Nalm-6-VR; conditions: Leukemia, B-ALL, Vincristine resistant, read-out: IC50 of Compounds in Suspension Cell Types
Protocol: as §1, §2

1937 = assay: IC50 cell-based assay, adherent cells, 1937; conditions: Breast, triple neg, 72 hours, read-out: IC50 of Compounds in Adherent Cell Types
Protocol: as §1

FaDu = assay: IC50 cell-based assay, adherent cells, FaDu; conditions: Homo sapiens, Pharynx, squamous cell, 72 hours, read-out: IC50 of Compounds in Adherent Cell Types
Protocol: as §1

[1] = tested on: triple negative breast cancer cell line MDA-MB-468; assay: IC50 cell-based assay, adherent cells, MDA-MB-468; conditions: Homo sapiens
Protocol: as §1
The IC50s of the compounds provided herein were determined in cell-based assay using triple negative breast cancer cell line MDA-MB-468.

Caki-1 = assay: IC50 cell-based assay, adherent cells, Caki-1; conditions: Homo sapiens, Kidney, clear cell carc., skin met, 72 hours, read-out: IC50 of Compounds in Adherent Cell Types
Protocol: as §1

Pfeiffer = assay: IC50 cell-based assay, suspension cells, Pfeiffer; conditions: Homo sapiens, Lymphoma, Diffuse large b-cell, read-out: IC50 of Compounds in Suspension Cell Types
Protocol: as §1, §2

U87-MG = assay: IC50 cell-based assay, adherent cells, U87-MG; conditions: Homo sapiens, U-87 MG, Brain, glioblastoma, 72 hours, read-out: IC50 of Compounds in Adherent Cell Types
Protocol: as §1

MDA-MB-361 = assay: IC50 cell-based assay, adherent cells, MDA-MB-361; conditions: Homo sapiens, Breast, Brain met Her2-neu + ER +, 72 hours, read-out: IC50 of Compounds in Adherent Cell Types
Protocol: as §1

MHH-CALL-4 = assay: IC50 cell-based assay, suspension cells, MHH-CALL-4; conditions: MHHCALL4, Leukemia, B-ALL (CRLF2 Hi), read-out: IC50 of Compounds in Suspension Cell Types
Protocol: as §1, §2

SupB15 = assay: IC50 cell-based assay, suspension cells, SupB15; conditions: Homo sapiens, SUP-B15, Leukemia, B-ALL (Philadelphia chromosome+), read-out: IC50 of Compounds in Suspension Cell Types
Protocol: as §1, §2

Nalm-6 = assay: IC50 cell-based assay, suspension cells, Nalm-6; conditions: Homo sapiens, Leukemia, B-ALL, read-out: IC50 of Compounds in Suspension Cell Types
Protocol: as §1, §2

SKBR-3 = assay: IC50 cell-based assay, adherent cells, SKBR-3; conditions: Homo sapiens, SK-BR-3, Breast, ER−, 72 hours, read-out: IC50 of Compounds in Adherent Cell Types
Protocol: as §1

RT-4 = assay: IC50 cell-based assay, adherent cells, RT-4; conditions: Homo sapiens, Bladder, papilloma, 72 hours, read-out: IC50 of Compounds in Adherent Cell Types
Protocol: as §1

A431 = assay: IC50 cell-based assay, adherent cells, A431; conditions: Homo sapiens, A-431, Skin, epidermoid carcinoma, 72 hours, read-out: IC50 of Compounds in Adherent Cell Types
Protocol: as §1

HT-29 = assay: IC50 cell-based assay, adherent cells, HT-29; conditions: Homo sapiens, Colorectal, adenocarcinoma, 72 hours, read-out: IC50 of Compounds in Adherent Cell Types
Protocol: as §1

SK-MEL-28 = assay: IC50 cell-based assay, adherent cells, SK-MEL-28; conditions: Homo sapiens, Melanoma, 72 hours, read-out: IC50 of Compounds in Adherent Cell Types
Protocol: as §1

[2] = MDA-MB-468, Breast, triple neg, 72 hours, Table 1, read-out: IC50 of Compounds in Adherent Cell Types
[3] = MDA-MB-468 cells, Table 3, read-out: IC50 of Compounds in MDA-MB-468 Cells

| IC50 (Kg1a) [µM] | IC50 (HL-60) [µM] | IC50 (Hep-G2) [µM] | IC50 (MDA-MB-231) [µM] | IC50 (MCF-7) [µM] | IC50 (AsPC-1) [µM] | IC50 (Nalm-6-VR) [µM] | IC50 1937 [µM] | IC50 (FaDu) [µM] | IC50 [1, 2] [µM] | IC50 [1, 3] [µM] | IC50 (Caki-1) [µM] | IC50 (Pfeiffer) [µM] | IC50 (U87-MG) [µM] | IC50 (MDA-MB-361) [µM] | IC50 (MHH-CALL-4) [µM] | IC50 (SupB15) [µM] | IC50 (Nalm-6) [µM] | IC50 (SKBR-3) [µM] | IC50 (RT-4) [µM] | Structure (SMILES) | also measured |
| --- | --- | --- | --- | --- | --- | --- | --- | --- | --- | --- | --- | --- | --- | --- | --- | --- | --- | --- | --- | --- | --- |
| < 5 | < 5 | 5 to 10 | < 5 | 5 to 10 | 5 to 10 | < 5 | < 5 | < 5 | < 5 | 1.5 | 5 to 10 | < 5 | 5 to 10 | < 5 | < 5 | < 5 | < 5 | < 5 | > 20 | O=C(Nc1cc(C(F)(F)F)cc(C(F)(F)F)c1)c1cc(-c2ccc(Cl)cc2)oc1C(F)(F)F [Compound 2, 5-(4-Chlorophenyl)-N-(3,5-bistrifluoromethylphenyl)-2-trifluoromethylfuran-3-carboxamide] | IC50 (A431): < 5 µM; IC50 (HT-29): 5 to 10 µM; IC50 (SK-MEL-28): 5 to 10 µM |
| < 5 | < 5 | 5 to 10 | < 5 | < 5 | < 5 | < 5 | < 5 | < 5 | < 5 | 1.5 | > 20 | < 5 | < 5 | < 5 | 5 to 10 | < 5 | < 5 | < 5 | 10 to 20 | O=C(Nc1cc(C(F)(F)F)cc(C(F)(F)F)c1)c1cc(-c2ccccc2)oc1C(F)(F)F [Compound 1, 5-Phenyl-2-trifluoromethyl-furan-3-carboxylic acid (3,5-bis-trifluoromethyl-phenyl)-amide] | IC50 (A431): < 5 µM; IC50 (HT-29): < 5 µM; IC50 (SK-MEL-28): < 5 µM |
